Patent publication US11479552B2, “Substituted piperidine compounds and their use” (Eisai R&D Management Co., Ltd., priority 2020, dated 2022)

Columns and labels:
hOX1R = hOX1R (Homo sapiens (Human), UniProt O43613); test: Test Example 1-2: Evaluation of activating activity for OX1R (calcium flux, HEK293 with forced expression); format: cell-based; conditions: HEK293 cells expressing hOX1R; intracellular calcium; 30 nM OX-A as 100%; up to 1×10^−5 M
Procedure: (§1) Human Embryonic Kidney cells 293 (HEK293) cells with forced expression of hOX1R or hOX2R were seeded in a 384-well microplate (Greiner) at 10,000 per well and cultured for 1 day in high-glucose-DMEM (FujiFilm Corp.—Wako Pure Chemical Industries, Ltd.) containing added 10% FBS (Thermo Scientific) and 1% Penicillin-Streptomycin (FujiFilm Corp.—Wako Pure Chemical Industries, Ltd.). After removing the medium, 30 μL of assay buffer (20 mM HEPES (Sigma-Aldrich Japan, KK.), Hank's balanced salt solution (Gibco), 0.1% BSA (Sigma-Aldrich Japan, KK.), 0.1% Pluronic F-127 (Invitrogen)) containing Calcium 4 dye (Molecular Device Corporation) and 2.5 mM probenecid (Sigma-Aldrich Japan, KK.) were added, and the mixture was incubated for 60 minutes. A 30 μL portion of assay buffer containing the test compound was added and reaction was initiated. Change in intracellular calcium ion concentration by the reaction was measured based on the fluorescence intensity ratio in terms of the fluorescence value with […], using FDSS7000 (Hamamatsu Photonics, K.K.). The test compound was dissolved in DMSO to 10 mM, and diluted with assay buffer to a final concentration of from 3×10^−11 M to 1×10^−5 M (DMSO final concentration of 0.1%). The EC50 value was determined from the fluorescence value with addition of the test compound at different concentrations, with the fluorescence value of the well with compound-free buffer added as 0%, and the fluorescence value of the well with 30 nM OX-A (Peptide Research Lab) as 100%.

Male C57BL/6NCrl mice = test: Test Example 2: Increase in spontaneous movement; format: in vivo; conditions: orally administered 10 mg/kg, measured 2 hours after administration, control group as 100%
Procedure: Similar to increase in body temperature or increase in cardiovascular parameters such as blood pressure, increased movement in mice is one of indicator for wakefulness. In this test example, the alertness effect was evaluated by measuring spontaneous movement of the mice. Male C57BL/6NCrl mice (18-19 weeks old, Charles River Laboratories, Japan Inc., 4 mice in each group) were used for the experiment. Spontaneous movement was measured by using a movement measuring device (VersaMax Oven Field, AccuScan Instruments, Inc.), irradiating infrared rays from the side sections of the measuring cage, and quantifying the number of times that the mice passed through the irradiation. After placing the mice in the measuring cage and conditioning for 3 hours, the compound was orally administered (10 mg/kg). Spontaneous movement was measured 2 hours after administration. The test compound-administered group was administered a solution of the test compound dissolved in 0.1 moL/L hydrochloric acid containing 5% (v/v) DMSO and 5% (v/v) Kolliphor™ EL. For the control group, solvent alone without the test compound was administered to the mice.
Spontaneous movement was represented as a percentage for the test compound-administered group, with spontaneous movement in the control group as 100%.

hOX2R = hOX2R (Homo sapiens (Human), UniProt O43614); test: Test Example 1-2: Evaluation of activating activity for OX2R (calcium flux, HEK293 with forced expression); format: cell-based; conditions: HEK293 cells expressing hOX2R; intracellular calcium; 30 nM OX-A as 100%; up to 1×10^−5 M
Chain of hOX2R (O43614 whole entry): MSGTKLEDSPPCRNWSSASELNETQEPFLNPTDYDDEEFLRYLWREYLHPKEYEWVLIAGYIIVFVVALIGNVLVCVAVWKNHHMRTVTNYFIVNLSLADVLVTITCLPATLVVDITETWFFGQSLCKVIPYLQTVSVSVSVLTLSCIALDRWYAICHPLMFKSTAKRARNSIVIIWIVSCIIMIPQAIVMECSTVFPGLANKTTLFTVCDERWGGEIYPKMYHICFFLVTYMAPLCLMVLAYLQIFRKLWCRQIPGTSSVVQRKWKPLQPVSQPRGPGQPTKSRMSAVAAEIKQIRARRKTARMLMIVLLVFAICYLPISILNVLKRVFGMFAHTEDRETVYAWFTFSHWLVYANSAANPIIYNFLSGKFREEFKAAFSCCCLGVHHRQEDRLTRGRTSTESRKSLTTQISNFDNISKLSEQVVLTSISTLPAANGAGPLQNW
Procedure: as §1

human OX2R (hOX2R) = human OX2R (hOX2R) (Homo sapiens (Human), UniProt O43614); test: Test Example 1-1: Evaluation of activity for OX2R (calcium flux, HEK293 with forced expression); format: cell-based; conditions: HEK293 cells expressing hOX2R; intracellular calcium; 10 nM OX-A as 100%; up to 1×10^−7 M
Chain of human OX2R (hOX2R) (O43614 whole entry): as above
Procedure: HEK293 (human embryonic kidney 293) cells with forced expression of human OX1R (hOX1R) or human OX2R (hOX2R) were seeded in a 384-well microplate (Greiner) at 10,000 per well and cultured for 1 day in high-glucose-DMEM (FujiFilm Corp.—Wako Pure Chemical Industries, Ltd.) containing added 10% FBS (Tenno Scientific) and 1% Penicillin-Streptomycin (FujiFilm Corp.—Wako Pure Chemical Industries, Ltd.). After removing the medium, 40 μL of assay buffer (20 mM HEPES (Sigma-Aldrich Japan, KK.), Hanks' balanced salt solution (Gibco), 0.1% BSA (Sigma-Aldrich Japan, KK.), 0.1% Pluronic F-127 (Invitrogen)) containing Calcium 4 dye (Molecular Device Corporation) and 2.5 mM probenecid (Sigma-Aldrich Japan, KK.) were added, and the plate was incubated for 60 minutes. After further adding 20 μL of assay buffer, 20 μL of assay buffer containing the test compound was added and reaction was initiated. Change in intracellular calcium ion concentration during the reaction was measured based on the fluorescence intensity ratio in terms of the fluorescence value with wavelength excitation at 480 nm and detection at 540 nm, using FDSS7000 (Hamamatsu Photonics, K.K.). The test compound was dissolved in DMSO to 10 mM, and diluted with assay buffer to a final concentration of from 3×10^−11 M to 1×10^−7 M (DMSO final concentration of 0.1%). […]

[1] = test system: orexin/ataxin-3 Tg/+ mice; test: Test Example 4: Wake-promoting effect and cataplexy-free state elongation in orexin-deficient mice (EEG/EMG); format: in vivo; conditions: oral; for DREM latency: cut-off 4 hours
Procedure: The experimental animals used were orexin/ataxin-3 Tg/+ mice (hereunder referred to as “Tg mice”, Ham et al., Neuron, 30,345-54,2001) with a C57BL/6 genetic background. Electroencephalogram and electromyogram measuring electrodes were surgically embedded into 12-week-old mice (±2 weeks) under isoflurane anesthesia. The solvent (0 mg/kg) or a solution of a sample (compound of Example 1 dissolved in the solvent: 0.3, 1 or 3 mg/kg) was orally administered 30 to 15 minutes before lighting was turned off. The solvent used was a 0.1 moL/L hydrochloric acid solution containing 5% (v/v) DMSO and 5% (v/v) Kolliphor™ EL. The electroencephalogram and electromyogram were recorded for about 24 hours, from 1 hour before lighting was turned off. The mice were repeatedly used, with a washout period of 2 days or longer. The electroencephalogram and electromyogram data obtained for each mouse were used to assess the sleep stage every epoch (10 seconds), using sleep analysis software (SleepSign: Kissei Comtec Co., Ltd.), up to a maximum of 4 hours (cut-off value). For the purpose of this experiment, cataplexy-like symptoms were defined as REM sleep appearing immediately after wakefulness (direct transition from wake to REM sleep (DREM)) for a contiguous period of 4 epochs or longer. DREM in mice is an analog of cataplexy (Exp Neurol. 2009; 217:46-54). The time until initial sleep appeared after lighting out for each mouse (sleep for contiguous 8 epochs or longer, excluding DREM)(sleep onset latency) and the time until initial DREM appeared (DREM latency) were measured. The numbers of mice were 14 in the vehicle group and Example 1 compound-administered groups. The sleep onset latency and DREM latency in a vehicle control group and a compound-administered group were compared by a Dunnet-type multiple comparison test following survival time analysis in consideration of the number of experiments and use of the same individuals, with a significance level of 5% at both ends for each.

[2] = test system: C57BL/6 line wild type (WT) male mice; test: Test Example 3: Wake-promoting effect by oral administration to wild type mice (EEG/EMG); format: in vivo
Procedure: The experimental animals used were C57BL/6 line wild type (WT) male mice. Electroencephalogram and electromyogram measuring electrodes were surgically embedded into 13-week-old mice under isoflurane anesthesia. The solvent (0 mg/kg) or a solution of the compound of Example 1 dissolved in the solvent (1, 3 or 10 mg/kg) was orally administered 30 to 15 minutes before lighting was turned off. The solvent used was a 0.1 moL/L hydrochloric acid solution containing 5% (v/v) DMSO and 5% (v/v) Kolliphor™ EL. The electroencephalogram and electromyogram were recorded for about 24 hours, from 1 hour before lighting was turned off. The mice were repeatedly used, with a washout period of 2 days or longer. The electroencephalogram and electromyogram data obtained for each mouse were used to assess the sleep stage every epoch (10 seconds), using sleep analysis software (SleepSign: Kissei Comtec Co., Ltd.). […] Using 16 mice in each administered group, the sleep onset latency in a solvent-administered group (control group) and an Example 1 compound-administered group were compared by a Dunnet-type multiple comparison test following survival time analysis in consideration of the number of experiments and use of the same individuals, with a significance level of 5% at both ends for each.

Chain of hOX1R (O43613 whole entry): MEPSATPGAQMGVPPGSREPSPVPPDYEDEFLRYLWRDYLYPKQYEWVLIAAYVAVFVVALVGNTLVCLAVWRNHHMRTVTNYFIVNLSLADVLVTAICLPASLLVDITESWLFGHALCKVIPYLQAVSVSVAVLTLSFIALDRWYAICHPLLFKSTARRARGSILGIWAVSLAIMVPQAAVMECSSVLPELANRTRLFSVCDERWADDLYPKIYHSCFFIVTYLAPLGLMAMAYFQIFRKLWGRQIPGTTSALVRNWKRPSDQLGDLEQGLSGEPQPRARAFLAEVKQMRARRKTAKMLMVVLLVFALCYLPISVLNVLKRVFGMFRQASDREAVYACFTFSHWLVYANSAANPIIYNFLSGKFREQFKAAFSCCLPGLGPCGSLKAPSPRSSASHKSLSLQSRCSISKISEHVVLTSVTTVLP

CO[C@@H]1CN(c2ncc(F)cn2)CC[C@@H]1[C@@H]1C[C@H]2CC[C@@H](C1)N2[C@@H](C(N)=O)C1CC1 [Example 1, (R)-2-cyclopropyl-2-((1R,3S,5S)-3-((3S,4R)-1-(5-fluoropyrimidin-2-yl)-3-methoxypiperidin-4-yl)-8-azabicyclo[3.2.1]octan-8-yl)acetamide] was tested, and the EC50 (hOX1R) was 4700 nM, the “Spontaneous movement (% of Control)” value (Male C57BL/6NCrl mice) was 865 % of Control and the EC50 (hOX2R) was 2.3 nM. For the same molecule, the EC50 (human OX2R (hOX2R)) was 0.99 nM, the sleep onset latency ([1]; 0.3 mg/kg) was 0.31 h and the DREM latency ([1]; 0.3 mg/kg) was 1.50 h. The sleep onset latency ([1]; 1 mg/kg) was 0.64 h, the DREM latency ([1]; 1 mg/kg) was 2.26 h and the sleep onset latency ([1]; 3 mg/kg) was 2.42 h. It also gave a DREM latency ([1]; 3 mg/kg) of 4.00 h, a sleep onset latency ([2]; 1 mg/kg) of 0.28 h and a sleep onset latency ([2]; 3 mg/kg) of 0.44 h. The sleep onset latency ([2]; 10 mg/kg) was 2.07 h.

CO[C@@H]1CN(c2ncc(F)cn2)CC[C@@H]1[C@@H]1C[C@H]2CC[C@@H](C1)N2[C@@H](C(N)=O)C(C)C [Example 2, (R)-2-((1R,3S,5S)-3-((3S,4R)-1-(5-fluoropyrimidin-2-yl)-3-methoxypiperidin-4-yl)-8-azabicyclo[3.2.1]octan-8-yl)-3-methylbutaneamide] was tested, and the “Spontaneous movement (% of Control)” value (Male C57BL/6NCrl mice) was 253 % of Control.

With CCO[C@@H]1CN(c2ncc(Cl)cn2)CC[C@@H]1[C@@H]1C[C@H]2CC[C@@H](C1)N2[C@@H](C(N)=O)C1CC1 [Example 3, (R)-2-((1R,3S,5S)-3-((3S,4R)-1-(5-chloropyrimidin-2-yl)-3-ethoxypiperidin-4-yl)-8-azabicyclo[3.2.1]octan-8-yl)-2-cyclopropyl acetamide] the EC50 (hOX1R) was 1400 nM and the EC50 (hOX2R) was 4.3 nM.

C[C@H]1C[C@@H]([C@@H]2C[C@H]3CC[C@@H](C2)N3[C@@H](C(N)=O)C2CC2)CCN1c1ncc(F)cn1 [Example 4, (R)-2-cyclopropyl-2-((1R,3S,5S)-3-((2S, 4S)-1-(5-fluoropyrimidin-2-yl)-2-methylpiperidin-4-yl)-8-azabicyclo[3.2.1]octan-8-yl)acetamide] gave an EC50 (hOX1R) of 3900 nM and an EC50 (hOX2R) of 4.4 nM.
